Values quoted from earlier work in patent US6372197B1, “Methods and compositions using norastemizole in combination with leukotriene inhibitors” (Sepracor Inc., priority 1998, dated 2002).
Where two headings read alike, the source gives them in different places.

Assays:
[1] = in some patients
[2] = test system: contractile activity of three leukotrienes; conditions: in vitro, conducting airway smooth muscle from laboratory animals
[3] = test system: contractile activity of three leukotrienes; conditions: in vitro, conducting airway smooth muscle from humans
[4] = test system: LTD4-induced increases in cutaneous vascular permeability; conditions: in vivo
[5] = test system: LTD4-induced influx of eosinophils; conditions: in vivo
[6] = in vivo
LTB4 formation = conditions: ex vivo, several species
[7] = 373 patients
[8] = test system: leukotriene (LTH4, LTC4, LTD4, and LTE4) formation; conditions: in vitro
[9] = test system: leukotriene-dependent smooth muscle contractions; conditions: in vitro, guinea pig airways
[10] = test system: leukotriene-dependent smooth muscle contractions; conditions: in vitro, human airways

Structure (SMILES) | adverse effects reported [1] | antagonism of contractile activity of three leukotrienes [2] | antagonism of contractile activity of three leukotrienes [3] | intradermal LTD4-induced increases in cutaneous vascular permeability [4] | inhaled LTD4-induced influx of eosinophils into animal lungs [5] | absorption [6] | metabolism [6] | inhibition of LTB4 formation (LTB4 formation) | efficacy ([7]; 400 mg) | efficacy ([7]; 600 mg four times daily) | inhibition of leukotriene (LTH4, LTC4, LTD4, and LTE4) formation [8] | inhibition of leukotriene-dependent smooth muscle contractions [9] | inhibition of leukotriene-dependent smooth muscle contractions [10]
COc1cc(C(=O)NS(=O)(=O)c2ccccc2C)ccc1Cc1cn(C)c2ccc(NC(=O)OC3CCCC3)cc12 [Zafirlukast, 4-(5-cyclopentyloxy-carbonylamino-1-methyl-indol-8-ylmethyl)-3-methoxy-N-o-tolylsulfonylbenzamide] | headache, infection, nausea, diarrhea, pain, asthenia, abdominal pain, dizziness, myalgia, fever, vomiting, SGPT elevation, and dyspepsia | antagonized | antagonized | prevented | inhibited |  |  |  |  |  |  |  | 
COc1ccc(CCN2CCC(Nc3nc4ccccc4n3Cc3ccc(F)cc3)CC2)cc1 [Astemizole] |  |  |  |  |  | well absorbed | extensively metabolized |  |  |  |  |  | 
CC(c1cc2ccccc2s1)N(O)C(N)=O (racemic) [Zileuton, (±)-1-(1-Benso[b]thien-2-ylethyl)-1-hydroxyurea] | headache, pain, asthenia, dyspepsia, nausea, and myalgia |  |  |  |  |  |  | inhibitor | failed to do so | required to provide efficacy | inhibit | inhibits | inhibits
